Patent publication US20230151003A1, “COMPOUNDS AND METHODS OF USE” (Exelixis, Inc., priority 2020, published 2023)

How the values were obtained:
Met = Met (Homo sapiens, UniProt P08581); test: Met autophosphorylation ELISA in PC-3 cells; type: cell-based; set-up: endogenous in cells; host or cells: PC-3 prostate cancer cells (ATCC #CRL-1435); conditions: Table 3 Cellular Activities, HGF-stimulated, phospho-Met ELISA, read-out: c-Met IC50
How it was run: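 Serum-starved (3 h) PC-3 cells pre-incubated 1 h with compound (8-point dose curve, 0.3% DMSO), then stimulated with 100 ng/mL recombinant human HGF for 10 min. Lysate phospho-Met (panTyr) measured by sandwich ELISA; IC50 from 4-parameter logistic fit, normalised to DMSO (100%) and reference-inhibitor (0%) controls.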

Mer = molecular target: T1, Mer (Homo sapiens, UniProt Q12866); test: Mer autophosphorylation ELISA in transient transfected 293A cells; type: cell-based; conditions: Table 3 Cellular Activities; MERTK-transfected 293A cells, phospho-Mer ELISA
T1 construct: host or cells: 293A cells (Thermo Fisher #R70507)
T1 sequence (Q12866 21-999): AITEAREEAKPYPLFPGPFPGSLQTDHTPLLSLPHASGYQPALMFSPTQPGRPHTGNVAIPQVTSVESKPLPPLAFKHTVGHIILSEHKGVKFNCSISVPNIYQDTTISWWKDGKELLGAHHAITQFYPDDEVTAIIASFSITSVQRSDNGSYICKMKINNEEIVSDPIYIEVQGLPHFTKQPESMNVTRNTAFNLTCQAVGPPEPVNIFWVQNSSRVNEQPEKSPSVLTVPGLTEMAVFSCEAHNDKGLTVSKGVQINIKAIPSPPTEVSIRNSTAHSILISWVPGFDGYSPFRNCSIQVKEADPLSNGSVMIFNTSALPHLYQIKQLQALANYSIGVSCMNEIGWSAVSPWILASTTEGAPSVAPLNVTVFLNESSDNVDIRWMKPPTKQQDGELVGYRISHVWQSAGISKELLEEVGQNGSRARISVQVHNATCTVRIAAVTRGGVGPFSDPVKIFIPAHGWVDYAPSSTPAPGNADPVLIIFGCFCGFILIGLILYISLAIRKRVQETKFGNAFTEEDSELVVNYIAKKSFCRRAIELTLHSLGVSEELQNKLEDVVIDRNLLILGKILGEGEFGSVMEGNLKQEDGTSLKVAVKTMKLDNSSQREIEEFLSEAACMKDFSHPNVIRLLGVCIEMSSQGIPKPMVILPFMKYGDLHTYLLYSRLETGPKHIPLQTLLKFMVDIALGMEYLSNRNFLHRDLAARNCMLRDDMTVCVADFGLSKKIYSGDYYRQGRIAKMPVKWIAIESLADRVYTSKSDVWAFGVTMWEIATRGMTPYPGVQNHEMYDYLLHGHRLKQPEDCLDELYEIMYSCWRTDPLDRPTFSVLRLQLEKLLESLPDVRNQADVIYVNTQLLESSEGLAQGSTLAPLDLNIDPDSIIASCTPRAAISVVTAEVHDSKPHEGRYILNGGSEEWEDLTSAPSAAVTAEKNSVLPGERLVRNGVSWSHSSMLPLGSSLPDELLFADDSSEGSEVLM
How it was run: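 293A cells transiently transfected with human MERTK DNA, replated after 24 h, then treated 1 h with 8-point compound dilutions in serum-free medium (0.3% DMSO). Lysates assayed by phospho-Mer sandwich ELISA against phospho-Mer standard; DMSO = 100%, reference inhibitor = 0% activity; IC50 by 4-parameter logistic fit.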

Chain of Met (P08581 25-1390): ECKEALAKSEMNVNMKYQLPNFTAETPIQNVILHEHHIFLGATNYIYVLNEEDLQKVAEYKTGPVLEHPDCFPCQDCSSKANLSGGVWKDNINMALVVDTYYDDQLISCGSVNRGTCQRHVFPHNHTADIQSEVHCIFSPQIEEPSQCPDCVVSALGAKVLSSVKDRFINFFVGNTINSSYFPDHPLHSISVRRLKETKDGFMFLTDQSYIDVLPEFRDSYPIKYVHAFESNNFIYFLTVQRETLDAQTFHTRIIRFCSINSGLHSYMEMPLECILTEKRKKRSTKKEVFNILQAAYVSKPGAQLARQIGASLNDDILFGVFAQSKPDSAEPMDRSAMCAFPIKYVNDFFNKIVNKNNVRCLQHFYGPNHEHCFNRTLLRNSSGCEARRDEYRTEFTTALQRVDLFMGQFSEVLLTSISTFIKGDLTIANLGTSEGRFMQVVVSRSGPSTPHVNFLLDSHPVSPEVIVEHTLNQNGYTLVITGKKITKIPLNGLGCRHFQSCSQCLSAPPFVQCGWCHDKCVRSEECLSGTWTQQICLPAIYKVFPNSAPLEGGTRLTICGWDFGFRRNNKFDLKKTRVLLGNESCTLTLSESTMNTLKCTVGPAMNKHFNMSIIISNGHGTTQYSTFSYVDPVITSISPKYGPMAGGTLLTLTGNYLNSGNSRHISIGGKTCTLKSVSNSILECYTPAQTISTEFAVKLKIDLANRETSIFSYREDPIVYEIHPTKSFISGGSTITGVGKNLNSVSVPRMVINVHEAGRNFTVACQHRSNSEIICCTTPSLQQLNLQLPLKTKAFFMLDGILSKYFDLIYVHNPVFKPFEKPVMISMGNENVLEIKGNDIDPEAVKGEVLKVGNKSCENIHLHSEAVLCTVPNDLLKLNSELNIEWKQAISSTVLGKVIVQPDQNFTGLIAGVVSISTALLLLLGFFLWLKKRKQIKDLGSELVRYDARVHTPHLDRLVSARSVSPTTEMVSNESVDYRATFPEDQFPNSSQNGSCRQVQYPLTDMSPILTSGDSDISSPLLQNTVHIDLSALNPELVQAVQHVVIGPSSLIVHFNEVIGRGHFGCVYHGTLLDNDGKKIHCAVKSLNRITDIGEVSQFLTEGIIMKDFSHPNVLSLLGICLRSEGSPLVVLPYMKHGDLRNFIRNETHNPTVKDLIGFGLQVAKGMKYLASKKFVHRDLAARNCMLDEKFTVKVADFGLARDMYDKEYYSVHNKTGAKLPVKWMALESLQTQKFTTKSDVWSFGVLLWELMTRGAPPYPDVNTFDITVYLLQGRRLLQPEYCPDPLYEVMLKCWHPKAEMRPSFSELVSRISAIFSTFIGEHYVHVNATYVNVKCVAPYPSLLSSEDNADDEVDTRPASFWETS

Row | Compound | IC50 (Met) [nM] | IC50 (Mer) [nM]
1 | COc1cnc2c(Oc3ccc(NC(=O)c4cn(CCF)c(C)c(-c5cccs5)c4=O)cc3F)ccnc2c1 [Compound 331, 1-(2-Fluoroethyl)-N-[3-fluoro-4-[(7-methoxy-1,5-naphthyridin-4-yl)oxy]phenyl]-6-methyl-4-oxo-5-thiophen-2-ylpyridine-3-carboxamide] | ≤ 100 | ≤ 100
2 | COc1cc2nccc(Oc3ccc(NC(=O)c4cnc(C)c(-c5cc(C)cs5)c4O)cc3F)c2nc1OC [Compound 91, N-[4-[(6,7-Dimethoxy-1,5-naphthyridin-4-yl)oxy]-3-fluoro-phenyl]-4-hydroxy-6-methyl-5-(4-methyl-2-thienyl) pyridine-3-carboxamide] | ≤ 100 | ≤ 100
3 | COc1cc2nccc(Oc3ccc(NC(=O)c4cnc(C)c(-c5nccs5)c4O)cc3F)c2nc1OC [Compound 143, N-[4-[(6,7-Dimethoxy-1,5-naphthyridin-4-yl)oxy]-3-fluorophenyl]-4-hydroxy-6-methyl-5-(1,3-thiazol-2-yl)pyridine-3-carboxamide] | ≤ 100 | ≤ 100
4 | COc1cc2nccc(Oc3ccc(NC(=O)c4cnc(C)c(-c5cscn5)c4O)cc3F)c2nc1OC [Compound 142, N-[4-[(6,7-Dimethoxy-1,5-naphthyridin-4-yl)oxy]-3-fluorophenyl]-4-hydroxy-6-methyl-5-(1,3-thiazol-4-yl)pyridine-3-carboxamide] | ≤ 100 | ≤ 100
5 | COc1cnc2c(Oc3ccc(NC(=O)c4cn(CCF)c(C)c(-c5ccoc5)c4=O)cc3F)ccnc2c1 [Compound 334, 1-(2-Fluoroethyl)-N-[3-fluoro-4-[(7-methoxy-1,5-naphthyridin-4-yl)oxy]phenyl]-5-(furan-3-yl)-6-methyl-4-oxopyridine-3-carboxamide] | ≤ 100 | ≤ 100
6 | COc1cnc2c(Oc3ccc(NC(=O)c4c(C)n(C)c(C)c(-c5cccs5)c4=O)cc3F)ccnc2c1 [Compound 166, N-[3-Fluoro-4-[(7-methoxy-1,5-naphthyridin-4-yl)oxy]phenyl]-1,2,6-trimethyl-4-oxo-5-thiophen-2-ylpyridine-3-carboxamide] | ≤ 100 | ≤ 100
7 | COc1cc2nccc(Oc3ccc(NC(=O)c4c(C)n(C)c(C)c(-c5cccs5)c4=O)cc3)c2nc1OC [Compound 167, N-[4-[(6,7-Dimethoxy-1,5-naphthyridin-4-yl)oxy]phenyl]-1,2,6-trimethyl-4-oxo-5-thiophen-2-ylpyridine-3-carboxamide] | ≤ 100 | ≤ 100
8 | COc1cc2nccc(Oc3ccc(NC(=O)c4c(C)ncc(-c5cc(C)cs5)c4O)cc3F)c2nc1OC [Compound 125, N-[4-[(6,7-Dimethoxy-1,5-naphthyridin-4-yl)oxy]-3-fluorophenyl]-4-hydroxy-2-methyl-5-(4-methylthiophen-2-yl)pyridine-3-carboxamide] | ≤ 100 | ≤ 100
9 | COc1ccc2nccc(Oc3ccc(NC(=O)c4cnc(C)c(-c5cccs5)c4O)cc3F)c2n1 [Compound 128, N-[3-Fluoro-4-[(6-methoxy-1,5-naphthyridin-4-yl)oxy]phenyl]-4-hydroxy-6-methyl-5-thiophen-2-ylpyridine-3-carboxamide] | ≤ 100 | ≤ 100
10 | COc1cc2nccc(Oc3ccc(NC(=O)c4c(C)ncc(-c5sccc5C)c4O)cc3F)c2nc1OC [Compound 126, N-[4-[(6,7-Dimethoxy-1,5-naphthyridin-4-yl)oxy]-3-fluorophenyl]-4-hydroxy-2-methyl-5-(3-methylthiophen-2-yl)pyridine-3-carboxamide] | ≤ 100 | ≤ 100
11 | COc1ccc2nccc(Oc3ccc(NC(=O)c4cnc(C)c(-c5ccco5)c4O)cc3F)c2n1 [Compound 118, N-[3-Fluoro-4-[(6-methoxy-1,5-naphthyridin-4-yl)oxy]phenyl]-5-(furan-2-yl)-4-hydroxy-6-methylpyridine-3-carboxamide] | ≤ 100 | ≤ 100
12 | COc1cnc2c(Oc3ccc(NC(=O)c4cnc(C)c(-c5cccs5)c4O)cc3F)ccnc2c1 [Compound 100, N-[3-Fluoro-4-[(7-methoxy-1,5-naphthyridin-4-yl)oxy]phenyl]-4-hydroxy-6-methyl-5-(2-thienyl)pyridine-3-carboxamide] | ≤ 100 | ≤ 100
13 | COc1cnc2c(Oc3ccc(NC(=O)c4cn(CCF)c(C)c(-c5ccc(C)s5)c4=O)cc3F)ccnc2c1 [Compound 329, 1-(2-Fluoroethyl)-N-[3-fluoro-4-[(7-methoxy-1,5-naphthyridin-4-yl)oxy]phenyl]-6-methyl-5-(5-methylthiophen-2-yl)-4-oxopyridine-3-carboxamide] | ≤ 100 | ≤ 100
14 | COc1cc2nccc(Oc3ccc(NC(=O)c4cnc(C)c(-c5cnoc5)c4O)cc3F)c2nc1OC [Compound 140, N-[4-[(6,7-Dimethoxy-1,5-naphthyridin-4-yl)oxy]-3-fluorophenyl]-4-hydroxy-6-methyl-5-(1,2-oxazol-4-yl)pyridine-3-carboxamide] | ≤ 100 | ≤ 100
15 | COc1cc2nccc(Oc3ccc(NC(=O)c4c(C)nc(C)c(-c5cccs5)c4O)cc3F)c2nc1OC [Compound 107] | ≤ 100 | ≤ 100
16 | COc1cc2nccc(Oc3ccc(NC(=O)c4c(C)nc(C)c(-c5ccc(C)o5)c4O)cc3F)c2nc1OC [Compound 110, N-[4-[(6,7-Dimethoxy-1,5-naphthyridin-4-yl)oxy]-3-fluoro-phenyl]-4-hydroxy-2,6-dimethyl-5-(5-methyl-2-furyl)pyridine-3-carboxamide] | ≤ 100 | ≤ 100
17 | COc1cc2nccc(Oc3ccc(NC(=O)c4c(C)nc(C)c(-c5cc(C)nn5C)c4O)cc3F)c2nc1OC [Compound 109, N-[4-[(6,7-Dimethoxy-1,5-naphthyridin-4-yl)oxy]-3-fluoro-phenyl]-5-(2,5-dimethylpyrazol-3-yl)-4-hydroxy-2,6-dimethyl-pyridine-3-carboxamide] | ≤ 100 | ≤ 100
18 | COc1cc2nccc(Oc3ccc(NC(=O)c4c(C)nc(C)c(-c5cc(C(F)(F)F)nn5C)c4O)cc3F)c2nc1OC [Compound 138] | ≤ 100 | ≤ 100
19 | COc1cc2nccc(Oc3ccc(NC(=O)c4cnc(C)c(-c5ccco5)c4O)cc3F)c2nc1OC [Compound 89, N-[4-[(6,7-Dimethoxy-1,5-naphthyridin-4-yl)oxy]-3-fluorophenyl]-5-(furan-2-yl)-4-hydroxy-6-methylpyridine-3-carboxamide] | ≤ 100 | ≤ 100
20 | COc1cc2nccc(Oc3ccc(NC(=O)c4cnc(C)c(-c5sccc5C)c4O)cc3F)c2nc1OC [Compound 103, N-[4-[(6,7-Dimethoxy-1,5-naphthyridin-4-yl)oxy]-3-fluoro-phenyl]-4-hydroxy-6-methyl-5-(3-methyl-2-thienyl) pyridine-3-carboxamide] | ≤ 100 | ≤ 100
21 | COc1cc2nccc(Oc3ccc(NC(=O)c4cc(Br)c(C)n(-c5ccc(F)cn5)c4=O)cc3F)c2nc1OC [Compound 55, 5-Bromo-N-[4-[(6,7-dimethoxy-1,5-naphthyridin-4-yl)oxy]-3-fluorophenyl]-1-(5-fluoropyridin-2-yl)-6-methyl-2-oxopyridine-3-carboxamide] | ≤ 100 | ≤ 100
